One experiment deals with 22PC (PRAD) cells. Kind of experiment: Viability of control and TP53/RB1-loss 22PC cells treated with simurosertib. Format: cell-based. Particulars: 0.5 μM; double TP53/RB1 loss versus control or single gene loss. An excerpt: CDC7 mRNA (FIG. 3A) and protein (FIG. 3B) expression in lung tumor clinical specimens, categorized as control never transformed adenocarcinomas (LUAD), transforming adenocarcinomas (T-LUAD) and small cell carcinomas (T-SCLC) and control de novo small cell carcinomas (SCLC). For FIG. 3B, H-score medians and standard deviation are shown. FIG. 3C: CDC7 mRNA expression in PRAD tumors with or without NE features. Data from Abida et al., PNAS 2019. FIG. 3D: CDC7 protein expression in PRAD and NEPC clinical specimens, as assessed by IHC. H-score medians and standard deviation and representative images (FIG. 3E) are shown. […] FIG. 3G: In vivo treatment of Lx1042 (T-SCLC) and LuCAP49 (NEPC) PDXs was conducted to compare the efficacy of the combination of cisplatin and simurosertib versus that of cisplatin and etoposide. Student's t-test was performed to assess statistical significance (two-tailed, assuming heterogeneous value distribution) p-value legend: *<0.05, **<0.01, ***<0.001. FIG. 3H: CDC7 mRNA expression in adenocarcinoma clinical specimens, categorized by their TP53/RB1 status. Data obtained from LUAD TCGA (PanCancer), LUAD OncoSG (OncoSG, Nat Genetics 2020) and PRAD TCGA (PanCancer). […]
Cytotoxic assays were performed as described in ^19. […] Viability was assessed with the CellTiter-Glo 2.0 Assay (Promega, G9242) as indicated by manufacturer.

The next experiment relates to MYC. Kind of experiment: Western blot of MYC in tumors collected at intermediate time point. The class given is in vivo, mice. To be noted: western blot (FIG. 6B). An excerpt:
FIG. 6A: Pathway enrichment analyses on differentially expressed genes between the combo-and enzalutamide-treated tumors, collected at an intermediate time point in the for TP53/RB1-inactivated LnCap and 22PC experiments shown in FIG. 5. […] FIG. 6C: MYC mRNA levels in the tumors collected at endpoint in the prostate transformation models treated in FIG. 5A. FIG. 6D: Barplot showing proteasome activity in control and CDC7-inhibited (either pharmacologically by simurosertib, or genetically by CDC7 CRISPR KO) prostate transformation models. FIG. 6E: Western blots showing neuroendocrine marker expression in prostate models of transformation, when treated with enzalutamide, simurosertib or their combination. Specifically, for each treatment condition, isogenic control and MYC^T58A-expressing cells were analyzed.
Protein extraction and western blot were performed as previously described^21. Antibodies for CDC7 (#3603, Cell Signaling Technology), MYC (#5605, Cell Signaling Technology), synaptophysin (#36406, Cell Signaling Technology), CD56 (#99746, Cell Signaling Technology), AR (#5153, Cell Signaling Technology vinculin (#13901, Cell Signaling Technology), tubulin (#3873, Cell Signaling Technology) and actin (#3700, Cell Signaling Technology). Quantifications were performed with the Image Studio software (Version 3.1, Li-Cor). Immunohistochemistry for CDC7 was performed with the CDC7 antibody #MA5-12589 from Invitrogen in TMAs including resected tumor samples form SCLC and NSCLC patients. All study subjects had provided signed informed consent for biospecimen analyses under an Institutional Review Board-approved protocol.
A general note: A western blot detects proteins with antibodies after separation by electrophoresis.

This is an account of results in patent US20260325520A1, “METHODS FOR TREATING OR PREVENTING NEUROENDOCRINE TUMR FORMATION USING CDC7 INHIBITORS” (Memorial Sloan-Kettering Cancer Center, priority 2022, published 2026).

For the compound `Cc1n[nH]cc1-c1cc2nc([C@@H]3CC4CCN3CC4)[nH]c(=O)c2s1` [simurosertib], the simurosertib sensitivity result with 22PC (PRAD) cells was “increased simurosertib sensitivity”. The MYC protein expression result with MYC is “MYC downregulation”.
